Consider five molecules from publication PMC8849072, “Sudapyridine (WX-081), a Novel Compound against Mycobacterium tuberculosis” (Microbiology Spectrum, 2022).

In brackets after ≈: the same amount, converted by molar mass.

Assay [1] has as its system M. tuberculosis clinical strain 13946. Briefly: MIC by microplate alamarBlue assay (MABA). To be noted: strain 13946: resistant to INH SM RFP EMB RBT PAS OFX; for MIC: Mycobacterium tuberculosis. In kind it is cell-based, Mycobacterium tuberculosis. In general terms: The colour change of resazurin is a common sign of viable cells or microbes.
Assay [2] deals with M. tuberculosis clinical strain 14550. Put plainly: MIC by microplate alamarBlue assay (MABA). In kind it is cell-based, Mycobacterium tuberculosis. To be noted: strain 14550: resistant to INH SM RFP EMB KM CPM AK 1321 PAS; for MIC: Mycobacterium tuberculosis.
In assay [3] the test system is M. tuberculosis clinical strain 14822. Put plainly: MIC by microplate alamarBlue assay (MABA). In kind it is cell-based, Mycobacterium tuberculosis. To be noted: strain 14822: resistant to INH SM RFP EMB KM RBT AK 1321 PAS; for MIC: Mycobacterium tuberculosis.
Assay [4] concerns M. tuberculosis clinical strain 14158. Briefly: MIC by microplate alamarBlue assay (MABA). It counts as cell-based, Mycobacterium tuberculosis. The conditions noted are these: strain 14158: resistant to INH SM RFP EMB AK 1321 PAS OFX; for MIC: Mycobacterium tuberculosis.
In assay [5] the test system is M. tuberculosis clinical strain 14441. Briefly: MIC by microplate alamarBlue assay (MABA). In kind it is cell-based, Mycobacterium tuberculosis. The conditions noted are these: strain 14441: resistant to INH RFP RBT AK CPM 1321 OFX LFX; for MIC: Mycobacterium tuberculosis.
For assay [6], the system named is M. tuberculosis clinical strain 14470. Briefly: MIC by microplate alamarBlue assay (MABA). In kind it is cell-based, Mycobacterium tuberculosis. The conditions noted are these: strain 14470: resistant to INH SM RFP EMB KM RBT AK CPM 1321 PAS; for MIC: Mycobacterium tuberculosis.
Assay [7] deals with M. tuberculosis clinical strain 13908. Briefly: MIC by microplate alamarBlue assay (MABA). To be noted: strain 13908: resistant to INH RFP EMB 1321 PAS OFX LFX; for MIC: Mycobacterium tuberculosis. In kind it is cell-based, Mycobacterium tuberculosis.
The test system of assay [8] is M. tuberculosis clinical strain 14282. Put plainly: MIC by microplate alamarBlue assay (MABA). The conditions noted are these: strain 14282: resistant to INH SM RFP EMB RBT 1321 OFX LFX; for MIC: Mycobacterium tuberculosis. In kind it is cell-based, Mycobacterium tuberculosis.
In assay [9] the test system is M. tuberculosis clinical strain 15321. Briefly: MIC by microplate alamarBlue assay (MABA). In kind it is cell-based, Mycobacterium tuberculosis. The conditions noted are these: strain 15321: resistant to INH RFP EMB AK ETO OFX RFT; for MIC: Mycobacterium tuberculosis.
For assay [10], the system named is M. tuberculosis clinical strain 14619. Put plainly: MIC by microplate alamarBlue assay (MABA). It counts as cell-based, Mycobacterium tuberculosis. To be noted: strain 14619: resistant to INH RFP KM CPM AK 1321 PAS; for MIC: Mycobacterium tuberculosis.
In assay [11] the test system is M. tuberculosis clinical strain 16030. Briefly: MIC by microplate alamarBlue assay (MABA). In kind it is cell-based, Mycobacterium tuberculosis. To be noted: strain 16030: resistant to INH RFP RFT; for MIC: Mycobacterium tuberculosis.
The subject of assay [12] is M. tuberculosis clinical strain 14862. Briefly: MIC by microplate alamarBlue assay (MABA). It counts as cell-based, Mycobacterium tuberculosis. To be noted: strain 14862: resistant to INH SM RFP EMB 1321 CPM PAS; for MIC: Mycobacterium tuberculosis.
The subject of assay [13] is M. tuberculosis clinical strain 16825. Put plainly: MIC by microplate alamarBlue assay (MABA). It counts as cell-based, Mycobacterium tuberculosis. To be noted: strain 16825: resistant to INH RFP AK RFT; for MIC: Mycobacterium tuberculosis.
For assay [14], the system named is M. tuberculosis clinical strain 15833. Put plainly: MIC by microplate alamarBlue assay (MABA). It counts as cell-based, Mycobacterium tuberculosis. To be noted: strain 15833: resistant to INH RFP RFT; for MIC: Mycobacterium tuberculosis.
Assay [15] relates to M. tuberculosis clinical strain 14092. Briefly: MIC by microplate alamarBlue assay (MABA). It counts as cell-based, Mycobacterium tuberculosis. To be noted: strain 14092: resistant to INH SM RFP; for MIC: Mycobacterium tuberculosis.
The test system of assay [16] is M. tuberculosis clinical strain 15321. Put plainly: MBC determination (CFU-based). The conditions noted are these: strain 15321: resistant to INH RFP EMB AK ETO OFLX RFT; 7 days incubation, 3 log10 CFU decrease.
For assay [17], the system named is M. tuberculosis clinical strain 14441. Briefly: MBC determination (CFU-based). To be noted: strain 14441: resistant to INH RFP RBT AK CPM 1321 OFLX LVFX; 7 days incubation, 3 log10 CFU decrease.
Assay [18] relates to M. tuberculosis clinical strain 14619. Put plainly: MBC determination (CFU-based). To be noted: strain 14619: resistant to INH RFP KM CPM AK 1321 PAS; 7 days incubation, 3 log10 CFU decrease.
Assay [19] relates to M. tuberculosis clinical strain 15833. Put plainly: MBC determination (CFU-based). The conditions noted are these: strain 15833: resistant to INH RFP RFT; 7 days incubation, 3 log10 CFU decrease.

`COc1nc2ccc(Br)cc2cc1[C@@H](c1ccccc1)[C@@](O)(CCN(C)C)c1cccc2ccccc12` [BDQ, bedaquiline]: the MIC in assay [1] was 0.021 µg/mL (≈ 0.0378 µM); in [2], 0.051 µg/mL (≈ 0.0918 µM); in assay [3], 0.111 µg/mL (≈ 0.2 µM); in assay [4], 0.03 µg/mL (≈ 0.054 µM); in [5], 0.214 µg/mL (≈ 0.385 µM); in assay [6], 0.468 µg/mL (≈ 0.842 µM). Further, the MIC in assay [7] turned out to be 0.266 µg/mL (≈ 0.479 µM); in [8] it was 0.053 µg/mL (≈ 0.0954 µM); in [9] it was 0.028 µg/mL (≈ 0.0504 µM); in assay [10], 0.052 µg/mL (≈ 0.0936 µM); in [11] it was 0.017 µg/mL (≈ 0.0306 µM); in assay [12], 0.006 µg/mL (≈ 0.0108 µM). The MIC in assay [13] was 0.06 µg/mL (≈ 0.108 µM); in [14], 0.09 µg/mL (≈ 0.162 µM); in [15], 0.048 µg/mL (≈ 0.0864 µM). Also, the MBCs is above 0.313 µg/mL in assay [16], above 2.5 µg/mL in assay [17], 0.156 µg/mL in assay [18] and above 0.32 µg/mL in assay [19].

With `NNC(=O)c1ccncc1` [INH, isoniazid], the MIC in assay [1] is 1.81 µg/mL (≈ 13.2 µM); in [2], 2.25 µg/mL (≈ 16.4 µM); in assay [3] it was above 40 µg/mL; in assay [4], above 40 µg/mL; in assay [5] it was above 40 µg/mL; in assay [6] it was above 40 µg/mL. The MIC in assay [7] was found to be 3.01 µg/mL (≈ 21.9 µM); in [8] it was 2.35 µg/mL (≈ 17.1 µM); in assay [9] it was 1.04 µg/mL (≈ 7.56 µM); in assay [10], 4.38 µg/mL (≈ 31.9 µM); in assay [11] it was 2.45 µg/mL (≈ 17.9 µM); in [12] it was 2.17 µg/mL (≈ 15.8 µM). Besides, the MIC in assay [13] was found to be 2.37 µg/mL (≈ 17.3 µM); in assay [14], 4.5 µg/mL (≈ 32.8 µM); in assay [15], 2.41 µg/mL (≈ 17.5 µM).

As for `NC[C@H]1O[C@H](O[C@H]2[C@H](O)[C@@H](O[C@H]3O[C@H](CO)[C@@H](O)[C@H](N)[C@H]3O)[C@H](N)C[C@@H]2N)[C@H](O)[C@@H](O)[C@@H]1O` [KM, kanamycin], the MICs in [1] is 0.788 µg/mL; in assay [2] it was 1.186 µg/mL; in assay [3] it was above 40 µg/mL; in assay [4], above 40 µg/mL; in [5], above 40 µg/mL; in [6], 0.437 µg/mL. Moreover, the MICs is 1.151 µg/mL in assay [7]; 1.199 µg/mL in [8]; above 40 µg/mL in assay [9]; 1.195 µg/mL in assay [10]; 1.072 µg/mL in assay [11]; 1.243 µg/mL in [12]. Further, the results for the MICs in assay [13], in [14] and in assay [15] were above 40 µg/mL, 2.302 µg/mL and 1.199 µg/mL, respectively.

On to `CO[C@H]1/C=C/O[C@@]2(C)Oc3c(C)c(O)c4c(O)c(c(/C=N/N5CCN(C)CC5)c(O)c4c3C2=O)NC(=O)/C(C)=C\C=C\[C@H](C)[C@H](O)[C@@H](C)[C@@H](O)[C@@H](C)[C@H](OC(C)=O)[C@@H]1C` [RFP, rifampicin], for which the MIC in assay [1], in [2], in assay [3], in assay [4], in [5] and in assay [6] was above 40 µg/mL each time. Also, the minimal inhibitory concentration (MIC) in assay [7] is 6.9 µg/mL (≈ 8.39 µM); in assay [8], above 40 µg/mL; in assay [9], above 40 µg/mL; in assay [10], above 40 µg/mL; in assay [11], above 40 µg/mL; in assay [12], 15.2 µg/mL (≈ 18.5 µM). The MIC in assay [13], in assay [14] and in assay [15] was above 40 µg/mL in each case.

Consider `COc1ncc(-c2ccc(Cl)cc2)cc1[C@@H](c1ccccc1)[C@@](O)(CCN(C)C)c1cccc2ccccc12` [WX-081, sudapyridine], for which the MIC stood at 0.098 µg/mL (≈ 0.182 µM) in assay [1]; 0.17 µg/mL (≈ 0.317 µM) in [2]; 0.48 µg/mL (≈ 0.894 µM) in assay [3]; 0.111 µg/mL (≈ 0.207 µM) in [4]; 0.465 µg/mL (≈ 0.866 µM) in [5]; 0.966 µg/mL (≈ 1.8 µM) in assay [6]. The MIC in [7] turned out to be 0.849 µg/mL (≈ 1.58 µM); in [8], 0.113 µg/mL (≈ 0.21 µM); in assay [9] it was 0.109 µg/mL (≈ 0.203 µM); in assay [10], 0.3 µg/mL (≈ 0.559 µM); in assay [11], 0.057 µg/mL (≈ 0.106 µM); in [12], 0.026 µg/mL (≈ 0.0484 µM). Besides, the MIC in [13] is 0.226 µg/mL (≈ 0.421 µM); in [14], 0.236 µg/mL (≈ 0.439 µM); in [15], 0.235 µg/mL (≈ 0.438 µM). In addition, the MBCs in [16] was above 1.25 µg/mL; in assay [17] it was above 5 µg/mL; in assay [18] it was 0.313 µg/mL; in [19], above 1.25 µg/mL.

Usually MIC stands for the lowest concentration that inhibits growth of the organism. Low readings indicate a more susceptible organism, high ones a less susceptible organism.
